In patent publication US20210023089A1, “Compositions Useful for Treating Herpes Simplex Keratitis, and Methods Using Same” (priority 2013, published 2021):

What was measured:
[1] = test system: HSV-1; test: qPCR of viral genome replication in HSV-1 infected HCE cells; format: cell-based, HSV-1 (KOS strain); settings: MOI 0.1, inhibitor 10 μM
Method: All cells were cultured at 37° C. and 5% CO2, and supplemented with 100 U/ml penicillin and 100 μg/ml streptomycin. Human corneal epithelial cells immortalized with hTERT (hTCEpi; Bahassi et al., 2008, Oncogene 27:3977-3985) were grown in complete KGM-2 medium. Human corneal epithelial cells immortalized with SV40 large T antigen (HCE; Araski-Sasaki et al., 1995, Invest. Ophthalmol. Visual Sci. 36:614-621), as well as African green monkey kidney fibroblasts (CV-1; Jensen et al., 1964, Proc. Natl. Acad. Sci. USA 52:53-59), were grown in DMEM medium supplemented with 10% FBS. KOS strain (Smith, Proc. Soc. Exp. Biol. Med. Soc. Exp. Biol. Med. 115:814-816) of HSV-1 was used in all infections. All viral stocks were titered on CV-1 monolayers.
Tetracyline-inducible Chk2 knockdown cell line was derived by lentivirally transducing HCE cells with a construct harboring shRNA sequence against the Chk2 transcript. The Chk2 shRNA sequence was acquired from Sigma (NM_007194.2-129951c1) and targets the following region: 5′-[…]-3′ (SEQ ID NO:1). Lentiviral particles were produced in 293T packaging cells (Dull et al., 1998, J. Virol. 72:8463-8471). […]
Total DNA from infected cells and corneas was isolated using the DNeasy Blood & Tissue Kit (QIAGEN, Hilden, Germany). Real time quantitative PCR was performed with SYBR Green (Bio-Rad, Hercules, Calif.). […]

[2] = test system: hTCEpi cells; test: Colony survival assay; format: cell-based, human
Method: hTCEpi cells were treated with KU-55933 (10 μM) or DMSO for 24 hours, trypsinized, counted, and plated into 6-cm dishes at 50 cells/dish. After 2 weeks, colonies were fixed with 10% buffered formalin, stained with 0.01% crystal violet, rinsed, and counted.

SMILES	viral genome replication (qPCR) [1]	survival and proliferation of cultured cells after treatment ([2]; 2 full weeks following a 24-hour treatment)	clonal survival compared to mock-treated controls ([2]; hTCEpi cells, KU-55933 10 μM continuously for 24 hours)
NC(=O)c1ccc2[nH]c(-c3ccc(Oc4ccc(Cl)cc4)cc3)nc2c1 [Chk2 inhibitor II, 2-(4-(4-chlorophenoxy)phenyl)-1H-benzimidazole-5-carboxamide]	profoundly reduced	–	–
O=c1cc(-c2cccc3c2Sc2ccccc2S3)oc(N2CCOCC2)c1 [KU-55933, 2-(morpholin-4-yl)-6-(thianthren-1-yl)-pyran-4-one]	–	able to survive and proliferate well	roughly 70%
